The subject of one series is HSV-1. The settings on record: concentrations up to 100 ug; Ogilvy et al, Nucleosides and Nucleotides (1983); cited from earlier work.
For another series, the system named is Epstein-Barr Virus (EBV). The series is described as follows: EBV-specific cRNA-DNA hybridization, EBV genome equivalents in P3HR-1 cells. In kind it is cell-based. Here is the method: 1-[2-Hydroxy-1-(hydroxymethyl)ethoxymethyl]cytosine was assayed for activity against Epstein-Barr Virus (EBV) using an adaptaion of the procedure described in Nature New Biology, 233, 103-106 (1971). This technique, employing an EBV-specific cRNA-DNA hybridization on filter membranes, detects the amount of EBV genome equivalents produced in the virus-producing cell lines. In this assay the EBV-producing cell line […]-1 (ATCC HTB 62) was exposed to various concentrations of 1-[2-hydroxy-1-(hydroxymethyl)-ethoxymethyl]cytosine for 14 days and EBV genome equivalents per cell were then determined to give an ED50 of approximately 0.05 μM.

The next series deals with VZV. The experiment in a line: antiviral test against VZV. As to conditions: antiviral tests, general statement.
In another series the test system is human CMV. The experiment in a line: plaque reduction assay in human foreskin fibroblast monolayers. The settings on record: for EC50: Human betaherpesvirus 5, Fibroblast, 192 h, Human Foreskin Fibroblasts, 8 days, read-out: ED₅₀. The format is cell-based. Here is the method:
Confluent monolayers of human diploid fibroblast cells (i.e., human foreskin fibroblast cells) were infected with 200-300 µL of a suspension containing 50-100 human CMV infectious virions per culture well and allowed to incubate for 90 minutes at 37 degrees C in a CO₂ incubator. Unadsorbed virus was then removed by aspiration and appropriate concentrations of 1-[2-hydroxy-1-(hydroxymethyl)ethoxymethyl] cytosine were added in Eagle's Minimal Essential Media containing 2% fetal calf serum in an agarose overlay (0.6%). The assay plates were incubated at 37 degrees C in a CO₂ incubator for 8 days to allow plaque development. The monolayers were then fixed with 10% formalin in phosphate buffered saline and stained wth 0.8% crystal violet. The plaques were counted at 3x magnification using a Bausch and Lomb dissecting microscope, and the data were analysed by SAS Probit (SAS Institute, Inc., Cary, N.C., U.S.A.) to give the following results: […]
Background: Plaque reduction counts the foci of infection that form in a cell layer.

Series [1] can be described thus: toxicity in mice after administration by gavage. The format is in vivo. As to conditions: 44.5 mg per kg by gavage, suspension in 5% Tween 80, 28 male CD-1 mice. Here is the method: The compound of formula (II) was administered to 28 male CD-1 mice by gavage. The dose was 44.5 mg per kg of body weight and was in suspension in 5% Tween 80 at a concentration of 5 mg/ml.

A short description of series [2]: urine levels after oral administration, rats. The format is in vivo. As to conditions: compared with oral administration of the compound of formula (I) itself.
The nature of series [3]: urine levels after oral administration, mice. As to conditions: compared with oral administration of the compound of formula (I) itself. In kind it is in vivo.
The mark [4] stands for this setting: antiviral tests, general statement.

Consider 2 compounds from EP0167385B1, “Antiviral compounds, treatment and formulations” (THE WELLCOME FOUNDATION LIMITED, priority 1984, dated 1986).

Molecules are shown by their SMILES. Like-named read-outs stand apart in the source and are kept apart here.

Regarding `Nc1ccn(COC(CO)CO)c(=O)n1` [1-[2-Hydroxy-1-(hydroxymethyl)ethoxymethyl]cytosine], in the series with HSV-1, the “activity against HSV-1” value is listed as “no activity”. In the series with Epstein-Barr Virus (EBV) (setting [4]), the “activity against EBV” value is on record as “surprisingly good activity”. In addition, the EC50 with Epstein-Barr Virus (EBV) (human gammaherpesvirus 4, 336 h, P3HR-1 (ATCC HTB 62) cells exposed for 14 days, read-out: ED₅₀ (EBV genome equivalents per cell)) is approximately 0.05 µM; in the series with human CMV (Virus Strain ATCC VR-538 (strain AD169)) it was 3.7 ± 0.7 µM; in the series on human CMV (Virus Strain Kerr) it was 1.9 ± 0.2 µM. Moreover, the “activity against VZV” value with VZV is reported as “surprisingly good activity”. Also, the “activity against CMV” value with human CMV (setting [4]) was “surprisingly good activity”.
Consider `CC(C)(C)C(=O)OCC(COC(=O)C(C)(C)C)OCn1ccc(N)nc1=O` [compound of formula (II), 2-[(4-Amino-1,2-dihydro-2-oxo-1-pyrimidinyl)methoxy]-1,3-propanediyl Dipivalate], for which the signs of toxicity entry in series [1] is reported as “No signs of toxicity were observed”. Further, the “body fluid levels of the compound of formula (I), as demonstrated by urine levels” value in series [2] and in series [3] was “substantially higher” in each case.
